In patent publication US8933233B2, “1,3,4-oxadiazole and 1,3,4-thiadiazole β-lactamase inhibitors” (priority 2012, dated 2015):
Structures can show the parent of a compound that is named as a salt.

Legend:
[1] = system: bacterial strains that express the class D cephalosporinase OXA-15; assay: Synergy MIC / standard BLI potentiation MIC assay, strains expressing OXA-15; type: cell-based, E. coli; details: in presence of a β-lactam; comparator Avibactam (CCC)
Method: (§1) Unless otherwise indicated, the activity of the BLI compounds can be described by the MIC value obtained from a Synergy MIC assay or a BLI potentiation assay (e.g as described herein), both of which are run in the presence of a β-lactam.
(§2) The experimental protocol was performed according to Clinical and Laboratory Standards Institute (CLSI) guidelines with modifications as described below (CLSI guidelines can be derived from the CLSI document M07-A9 published in January 2012: “Methods for Dilution Antimicrobial Susceptibility Tests for Bacteria That Grow Aerobically; Approved Standard-Ninth Edition”).
(§3) To prepare for MIC testing, frozen glycerol stocks of clinical isolates (Klebsiella pneumoniae, Eschericia coli, Enterobacter spp, Citrobacter spp, or Pseudomonas aeruginosa) were used to streak for isolated colonies on rich, non-selective, tryptic soy agar containing 5% sheep's blood (TSAB). Frozen glycerol stocks of laboratory engineered, isogenic E. coli strains, which contain cloned β-lactamase expressing plasmids were used to streak for isolated colonies on rich, selective LB agar supplemented with 25 μg/mL tetracycline to maintain the plasmid. All strains were incubated at 37° C. for 18-24 hrs.
(§4) On the day of testing, primary cultures were started by scraping off 5-10 colonies from the TSAB plates containing clinical strains or the tetracycline supplemented LB plates containing engineered strains. The clinical strain material was suspended in ˜5 mL of cation adjusted Mueller Hinton Broth (CAMHB) in 14 mL culture tubes. The engineered strain material was suspended in CAMHB (supplemented with 25 μg/mL tetracycline) in 14 mL culture tubes. All strains were incubated at 37° C. with aeration (200 rpm) for ˜2 hrs until the optical density at 600 nm (OD600) was ≧0.1.
(§5) The two compound components of the assay were each diluted in CAMHB and added to the 96-well broth microdilution assay plates. 50 μL of the β-lactam was added to each well of the assay plate in 2-fold dilutions with final concentrations ranging from 128 to 0.13 μg/mL. 25 μL of the BLI compound was added to all wells in the broth microdilution plates at a final concentration of 4 μg/mL. Inoculum cultures were prepared by standardizing the primary cultures to OD600=0.1 and then adding 20 μL of the adjusted primary culture per 1 mL CAMHB for clinical strains or CAMHB (supplemented with tetracycline at 100 μg/mL) for engineered strains, so that the final inoculum density was ˜10^5 colony forming units per milliliter. Diluted inoculum cultures were used to inoculate 25 μL per well in 96-well broth microdilution assay plates. The final volume of each well was 100 μL and contained a β-lactam at different concentrations, a BLIcompound at 4 μg/mL concentration, the bacterial culture at an OD600 of approximately 0.001 and when necessary tetracycline at 25 μg/mL.
(§6) Plates were incubated for 18-20 hours at 37° C. with aeration (200 rpm). Following incubation, growth was confirmed visually placing plates over a viewing apparatus (stand with a mirror underneath) and then OD600 was measured using a SpectraMax 340PC384 plate reader (Molecular Devices, Sunnyvale, Calif.). Growth was defined as turbidity that could be detected with the naked eye or achieving minimum OD600 of 0.1. MIC values were defined as the lowest concentration producing no visible turbidity.
(§7) The synergy MIC (sMIC) assay determines the concentration of the BLI required to potentiate the activity of a fixed concentration of a β-lactam antibiotic against β-lactamase producing bacterial strains. The experimental protocol was performed according to Clinical and Laboratory Standards Institute (CLSI) guidelines with modifications as described below (CLSI guidelines can be derived from the CLSI document M07-A9 published in January 2012: “Methods for Dilution Antimicrobial Susceptibility Tests for Bacteria That Grow Aerobically; Approved Standard-Ninth Edition”). […]

[2] = system: bacterial strains that express KPC β-lactamases; assay: Synergy MIC / standard BLI potentiation MIC assay, strains expressing KPC β-lactamases; type: cell-based, isogenic E. coli and clinical isolates; details: more active for at least one KPC strain and/or better spectrum; comparator Avibactam
Method: as §1, §2, §3, §4, §5, §6, §7

Row | Structure (SMILES) | activity against bacterial strains that express OXA-15, compared with Avibactam [1] | activity and/or spectrum of activity against bacterial strains that express KPC β-lactamases, compared with Avibactam [2]
1 | N[C@H]1CN[C@H](c2nnc([C@@H]3CC[C@@H]4CN3C(=O)N4OS(=O)(=O)O)o2)C1 [Compound 762, (2S,5R)-2-(5-((2S,4R)-4-aminopyrrolidin-2-yl)-1,3,4-oxadiazol-2-yl)-7-oxo-1,6-diazabicyclo[3.2.1]octan-6-yl hydrogen sulfate] | more active than Avibactam | more active than Avibactam
2 | CNCCCc1nnc([C@@H]2CC[C@@H]3CN2C(=O)N3OS(=O)(=O)O)o1 [Compound 734, 2S,5R)-2-(5-(3-(methylamino)propyl)-1,3,4-oxadiazol-2-yl)-7-oxo-1,6-diazabicyclo[3.2.1]octan-6-yl hydrogen sulfate] | more active than Avibactam | more active than Avibactam
3 | NC(=O)c1nnc([C@@H]2CC[C@@H]3CN2C(=O)N3OS(=O)(=O)O)o1 [Compound 706, (2S,5R)-2-(5-carbamoyl-1,3,4-oxadiazol-2-yl)-7-oxo-1,6-diaza-bicyclo[3.2.1]octan-6-yl hydrogen sulfate] | more active than Avibactam | more active than Avibactam
4 | O=C1N2C[C@@H](CC[C@H]2c2nnc(CN[C@@H]3CCNC3)o2)N1OS(=O)(=O)O [Compound 766, (2S,5R)-7-oxo-2-(5-(((R)-pyrrolidin-3-ylamino)methyl)-1,3,4-oxadiazol-2-yl)-1,6-diazabicyclo[3.2.1]octan-6-yl hydrogen sulfate] | more active than Avibactam | more active than Avibactam
5 | N=C(N)N1CC(c2nnc([C@@H]3CC[C@@H]4CN3C(=O)N4OS(=O)(=O)O)o2)C1 [Compound 709, (2S,5R)-2-(5-(1-carbamimidoylazetidin-3-yl)-1,3,4-oxadiazol-2-yl)-7-oxo-1,6-diazabicyclo[3.2.1]octan-6-yl hydrogen sulfate] | more active than Avibactam | more active than Avibactam
6 | NCCCc1nnc([C@@H]2CC[C@@H]3CN2C(=O)N3OS(=O)(=O)O)o1 [Compound 720, (2S,5R)-2-(5-(3-aminopropyl)-1,3,4-oxadiazol-2-yl)-7-oxo-1,6-diazabicyclo[3.2.1]octan-6-yl hydrogen sulfate] | more active than Avibactam | more active than Avibactam
7 | N[C@H]1CC[C@@H](c2nnc([C@@H]3CC[C@@H]4CN3C(=O)N4OS(=O)(=O)O)o2)C1 [Compound 768, (2S,5R)-2-(5-((1R,3S)-3-aminocyclopentyl)-1,3,4-oxadiazol-2-yl)-7-oxo-1,6-diazabicyclo[3.2.1]octan-6-yl hydrogen sulfate] | more active than Avibactam | more active than Avibactam
8 | NCc1nnc([C@@H]2CC[C@@H]3CN2C(=O)N3OS(=O)(=O)O)o1 [Compound 702, (2S,5R)-2-(5-(aminomethyl)-1,3,4-oxadiazol-2-yl)-7-oxo-1,6-diazabicyclo[3.2.1]octan-6-yl hydrogen sulfate] | more active than Avibactam | more active than Avibactam
9 | O=C1N2C[C@@H](CC[C@H]2c2nnc(CCC3CNC3)o2)N1OS(=O)(=O)O [Compound 742, (2S,5R)-2-(5-(2-(azetidin-3-yl)ethyl)-1,3,4-oxadiazol-2-yl)-7-oxo-1,6-diazabicyclo[3.2.1]octan-6-yl hydrogen sulfate] | more active than Avibactam | more active than Avibactam
10 | N[C@H]1C[C@H](c2nnc([C@@H]3CC[C@@H]4CN3C(=O)N4OS(=O)(=O)O)o2)C1 [Compound 727, (2S,5R)-2-(5-((1r,3S)-3-aminocyclobutyl)-1,3,4-oxadiazol-2-yl)-7-oxo-1,6-diazabicyclo[3.2.1]octan-6-yl hydrogen sulfate] | more active than Avibactam | more active than Avibactam
11 | O=C1N2C[C@@H](CC[C@H]2c2nnc(C3CCNCC3)o2)N1OS(=O)(=O)O [Compound 711, (2S,5R)-7-oxo-2-(5-(piperidin-4-yl)-1,3,4-oxadiazol-2-yl)-1,6-diazabicyclo[3.2.1]octan-6-yl hydrogen sulfate] | more active than Avibactam | more active than Avibactam
12 | O=C1N2C[C@@H](CC[C@H]2c2nnc([C@H]3CNCCN3)o2)N1OS(=O)(=O)O [Compound 779, (2S,5R)-7-oxo-2-(5-((R)-piperazin-2-yl)-1,3,4-oxadiazol-2-yl)-1,6-diazabicyclo[3.2.1]octan-6-yl hydrogen sulfate] | more active than Avibactam | more active than Avibactam
13 | O=C1N2C[C@@H](CC[C@H]2c2nnc(CCCNC3CCNCC3)o2)N1OS(=O)(=O)O [Compound 771, (2S,5R)-7-oxo-2-(5-(3-(piperidin-4-ylamino)propyl)-1,3,4-oxadiazol-2-yl)-1,6-diazabicyclo[3.2.1]octan-6-yl hydrogen sulfate] | more active than Avibactam | more active than Avibactam
14 | O=C1N2C[C@@H](CC[C@H]2c2nnc(CCN3CCNCC3)o2)N1OS(=O)(=O)O [Compound 776, (2S,5R)-7-oxo-2-(5-(2-(piperazin-1-yl)ethyl)-1,3,4-oxadiazol-2-yl)-1,6-diazabicyclo[3.2.1]octan-6-yl hydrogen sulfate] | more active than Avibactam | more active than Avibactam
15 | C[n+]1ccc(-c2nnc([C@@H]3CC[C@@H]4CN3C(=O)N4OS(=O)(=O)[O-])o2)cc1 [Compound 782, (2S,5R)-2-(5-(1-methylpyridin-1-ium-4-yl)-1,3,4-oxadiazol-2-yl)-7-oxo-1,6-diazabicyclo[3.2.1]octan-6-yl sulfate] | more active than Avibactam | more active than Avibactam
16 | N[C@@H]1CC[C@H](c2nnc([C@@H]3CC[C@@H]4CN3C(=O)N4OS(=O)(=O)O)o2)C1 [Compound 729, (2S,5R)-2-(5-((1S,3R)-3-aminocyclopentyl)-1,3,4-oxadiazol-2-yl)-7-oxo-1,6-diazabicyclo[3.2.1]octan-6-yl hydrogen sulfate] | more active than Avibactam | more active than Avibactam
